Key:
[1] = system: southern crabgrass; assay: Test Example 5: herbicidal effect by foliage application, plastic box (Table 20, symbol F); type: in vivo, southern crabgrass (Digitaria ciliaris); details: foliage application
Summary of the method: (§1)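 Sow seeds spot-wise in sterilized diluvial soil; cover with ~1.5 cm soil. Grow 14 days in greenhouse, 25° C. to 30° C. Spray foliage with emulsion diluted to predetermined amount. Rate effect after 3 weeks.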

[2] = system: chickweed; assay: Test Example 5: herbicidal effect by foliage application, plastic box (Table 20, symbol P); type: in vivo, common chickweed (Stellaria media); details: foliage application
Summary of the method: as §1

[3] = system: chickweed; assay: Test Example 4: herbicidal effect by soil treatment (Table 19, symbol P); type: in vivo, common chickweed (Stellaria media); details: amount of applied herbicide 320 g/ha
Summary of the method: (§2)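 Applied as a water-diluted emulsion, the compound was sprayed onto soil covering newly sown seeds. Evaluation came three weeks after application, in a greenhouse held at 25° C. to 30° C.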

[4] = system: green foxtail; assay: Test Example 4: herbicidal effect by soil treatment (Table 19, symbol G); type: in vivo, green foxtail (Setaria viridis); details: amount of applied herbicide 320 g/ha
Summary of the method: as §2

[5] = system: rice flat sedge; assay: Test Example 3: herbicidal effect by foliage application, Wagner pot (Table 18, symbol E); type: in vivo, rice flat sedge (Cyperus iria); details: amount of applied herbicide 320 g/ha
Summary of the method: (§3)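 Plants were sown in alluvial soil held under 0.1–0.5 cm standing water and grown 14 days in a greenhouse at 25–30 °C. An emulsifiable formulation, water-diluted to the set dose, was then sprayed onto the foliage, and effects were scored three weeks later using previously defined criteria.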

[6] = system: blackgrass; assay: Test Example 5: herbicidal effect by foliage application, plastic box (Table 20, symbol J); type: in vivo, blackgrass (Alopecurus myosuroides); details: foliage application
Summary of the method: as §1

[7] = system: barnyard grass; assay: Test Example 5: herbicidal effect by foliage application, plastic box (Table 20, symbol H); type: in vivo, barnyard grass (Echinochloa crus-galli); details: foliage application
Summary of the method: as §1

[8] = system: Chinese sprangletop; assay: Test Example 3: herbicidal effect by foliage application, Wagner pot (Table 18, symbol D); type: in vivo, chinese sprangletop (Leptochloa chinensis); details: amount of applied herbicide 320 g/ha
Summary of the method: as §3

[9] = system: persian speedwell; assay: Test Example 5: herbicidal effect by foliage application, plastic box (Table 20, symbol R); type: in vivo, Persian speedwell (Veronica persica); details: foliage application
Summary of the method: as §1

[10] = system: redroot pigweed; assay: Test Example 5: herbicidal effect by foliage application, plastic box (Table 20, symbol N); type: in vivo, redroot pigweed (Amaranthus retroflexus); details: foliage application
Summary of the method: as §1

[11] = system: wild oat; assay: Test Example 5: herbicidal effect by foliage application, plastic box (Table 20, symbol I); type: in vivo, wild oat (Avena fatua); details: foliage application
Summary of the method: as §1

[12] = system: redroot pigweed; assay: Test Example 4: herbicidal effect by soil treatment (Table 19, symbol N); type: in vivo, redroot pigweed (Amaranthus retroflexus); details: amount of applied herbicide 320 g/ha
Summary of the method: as §2

[13] = system: Italian ryegrass; assay: Test Example 4: herbicidal effect by soil treatment (Table 19, symbol K); type: in vivo, Italian ryegrass (Lolium multiflorum); details: amount of applied herbicide 320 g/ha
Summary of the method: as §2

[14] = system: green foxtail; assay: Test Example 5: herbicidal effect by foliage application, plastic box (Table 20, symbol G); type: in vivo, green foxtail (Setaria viridis); details: foliage application
Summary of the method: as §1

[15] = system: windgrass; assay: Test Example 5: herbicidal effect by foliage application, plastic box (Table 20, symbol L); type: in vivo, windgrass (Apera spica-venti); details: foliage application
Summary of the method: as §1

[16] = system: Italian ryegrass; assay: Test Example 5: herbicidal effect by foliage application, plastic box (Table 20, symbol K); type: in vivo, Italian ryegrass (Lolium multiflorum); details: foliage application
Summary of the method: as §1

[17] = system: barnyard grass; assay: Test Example 4: herbicidal effect by soil treatment (Table 19, symbol H); type: in vivo, barnyard grass (Echinochloa crus-galli); details: amount of applied herbicide 320 g/ha
Summary of the method: as §2

[18] = system: velvetleaf; assay: Test Example 5: herbicidal effect by foliage application, plastic box (Table 20, symbol M); type: in vivo, velvetleaf (Abutilon theophrasti); details: foliage application
Summary of the method: as §1

[19] = system: lambsquarters; assay: Test Example 4: herbicidal effect by soil treatment (Table 19, symbol O); type: in vivo, lambsquarters (Chenopodium album); details: amount of applied herbicide 320 g/ha
Summary of the method: as §2

[20] = system: persian speedwell; assay: Test Example 4: herbicidal effect by soil treatment (Table 19, symbol R); type: in vivo, Persian speedwell (Veronica persica); details: amount of applied herbicide 320 g/ha
Summary of the method: as §2

[21] = system: wild oat; assay: Test Example 4: herbicidal effect by soil treatment (Table 19, symbol I); type: in vivo, wild oat (Avena fatua); details: amount of applied herbicide 320 g/ha
Summary of the method: as §2

[22] = system: velvetleaf; assay: Test Example 4: herbicidal effect by soil treatment (Table 19, symbol M); type: in vivo, velvetleaf (Abutilon theophrasti); details: amount of applied herbicide 320 g/ha
Summary of the method: as §2

[23] = system: windgrass; assay: Test Example 4: herbicidal effect by soil treatment (Table 19, symbol L); type: in vivo, windgrass (Apera spica-venti); details: amount of applied herbicide 320 g/ha
Summary of the method: as §2

[24] = system: southern crabgrass; assay: Test Example 4: herbicidal effect by soil treatment (Table 19, symbol F); type: in vivo, southern crabgrass (Digitaria ciliaris); details: amount of applied herbicide 320 g/ha
Summary of the method: as §2

[25] = system: barnyard grass; assay: Test Example 3: herbicidal effect by foliage application, Wagner pot (Table 18, symbol H); type: in vivo, barnyard grass (Echinochloa crus-galli); details: amount of applied herbicide 320 g/ha
Summary of the method: as §3

[26] = system: lambsquarters; assay: Test Example 5: herbicidal effect by foliage application, plastic box (Table 20, symbol O); type: in vivo, lambsquarters (Chenopodium album); details: foliage application
Summary of the method: as §1

[27] = system: blackgrass; assay: Test Example 4: herbicidal effect by soil treatment (Table 19, symbol J); type: in vivo, blackgrass (Alopecurus myosuroides); details: amount of applied herbicide 320 g/ha
Summary of the method: as §2

[28] = 320 g/ha, three weeks after application
[29] = AAH 320 g/ha, evaluated three weeks after application

CON=C(C)c1ccc(-c2sc3cc(F)ccc3c2-c2c(O)c(C)nn(C)c2=O)cc1 [3-017]
F: southern crabgrass, herbicidal effect grade [1, 28]: 3 (Herbicidal rate of 40% or more and less than 70%) | P: chickweed, herbicidal effect grade [2, 28]: 5 (Herbicidal rate of 90% or more (almost completely withered)) | herbicidal effect, P: chickweed [3]: 1 (Herbicidal rate of 5% or more and less than 20%) | herbicidal effect, G: green foxtail [4]: 0 (Herbicidal rate of 5% or less (almost no effect)) | herbicidal effect on E: rice flat sedge [5]: 0 (Herbicidal rate of 5% or less (almost no effect)) | J: blackgrass, herbicidal effect grade [6, 28]: 3 (Herbicidal rate of 40% or more and less than 70%) | H: barnyard grass, herbicidal effect grade [7, 28]: 2 (Herbicidal rate of 20% or more and less than 40%) | herbicidal effect on D: Chinese sprangletop [8]: 0 (Herbicidal rate of 5% or less (almost no effect)) | R: persian speedwell, herbicidal effect grade [9, 28]: 5 (Herbicidal rate of 90% or more (almost completely withered)) | N: redroot pigweed, herbicidal effect grade [10, 28]: 5 (Herbicidal rate of 90% or more (almost completely withered)) | I: wild oat, herbicidal effect grade [11, 28]: 1 (Herbicidal rate of 5% or more and less than 20%) | herbicidal effect, N: redroot pigweed [12]: 5 (Herbicidal rate of 90% or more (almost completely withered)) | herbicidal effect, K: Italian ryegrass [13]: 3 (Herbicidal rate of 40% or more and less than 70%) | G: green foxtail, herbicidal effect grade [14, 28]: 5 (Herbicidal rate of 90% or more (almost completely withered)) | L: windgrass, herbicidal effect grade [15, 28]: 2 (Herbicidal rate of 20% or more and less than 40%) | K: Italian ryegrass, herbicidal effect grade [16, 28]: 4 (Herbicidal rate of 70% or more and less than 90%) | herbicidal effect, H: barnyard grass [17]: 0 (Herbicidal rate of 5% or less (almost no effect)) | M: velvetleaf, herbicidal effect grade [18, 28]: 3 (Herbicidal rate of 40% or more and less than 70%) | herbicidal effect, O: lambsquarters [19]: 4 (Herbicidal rate of 70% or more and less than 90%) | herbicidal effect, R: persian speedwell [20]: 3 (Herbicidal rate of 40% or more and less than 70%) | herbicidal effect, I: wild oat [21]: 0 (Herbicidal rate of 5% or less (almost no effect)) | herbicidal effect, M: velvetleaf [22]: 0 (Herbicidal rate of 5% or less (almost no effect)) | herbicidal effect, L: windgrass [23]: 0 (Herbicidal rate of 5% or less (almost no effect)) | herbicidal effect, F: southern crabgrass [24]: 0 (Herbicidal rate of 5% or less (almost no effect)) | herbicidal effect on H: barnyard grass [25]: 3 (Herbicidal rate of 40% or more and less than 70%) | O: lambsquarters, herbicidal effect grade [26, 28]: 5 (Herbicidal rate of 90% or more (almost completely withered)) | herbicidal effect, J: blackgrass [27]: 0 (Herbicidal rate of 5% or less (almost no effect))

Cc1nn(C)c(=O)c(-c2c(-c3ccc(OC(F)F)cc3)sc3ccc(F)cc23)c1OCC#N [2-303]
F: southern crabgrass, herbicidal effect (criteria 0-5) [1, 29]: 0 (Herbicidal rate of 5% or less (almost no effect)) | P: chickweed, herbicidal effect (criteria 0-5) [2, 29]: 5 (Herbicidal rate of 90% or more (almost completely withered)) | herbicidal effect on P: chickweed [3]: 3 (Herbicidal rate of 40% or more and less than 70%) | herbicidal effect on G: green foxtail [4]: 0 (Herbicidal rate of 5% or less (almost no effect)) | herbicidal effect on E: rice flat sedge [5]: 3 (Herbicidal rate of 40% or more and less than 70%) | J: blackgrass, herbicidal effect (criteria 0-5) [6, 29]: 0 (Herbicidal rate of 5% or less (almost no effect)) | H: barnyard grass, herbicidal effect (criteria 0-5) [7, 29]: 4 (Herbicidal rate of 70% or more and less than 90%) | herbicidal effect on D: Chinese sprangletop [8]: 4 (Herbicidal rate of 70% or more and less than 90%) | R: persian speedwell, herbicidal effect (criteria 0-5) [9, 29]: 5 (Herbicidal rate of 90% or more (almost completely withered)) | N: redroot pigweed, herbicidal effect (criteria 0-5) [10, 29]: 5 (Herbicidal rate of 90% or more (almost completely withered)) | I: wild oat, herbicidal effect (criteria 0-5) [11, 29]: 0 (Herbicidal rate of 5% or less (almost no effect)) | herbicidal effect on N: redroot pigweed [12]: 0 (Herbicidal rate of 5% or less (almost no effect)) | herbicidal effect on K: Italian ryegrass [13]: 0 (Herbicidal rate of 5% or less (almost no effect)) | G: green foxtail, herbicidal effect (criteria 0-5) [14, 29]: 5 (Herbicidal rate of 90% or more (almost completely withered)) | L: windgrass, herbicidal effect (criteria 0-5) [15, 29]: 0 (Herbicidal rate of 5% or less (almost no effect)) | K: Italian ryegrass, herbicidal effect (criteria 0-5) [16, 29]: 3 (Herbicidal rate of 40% or more and less than 70%) | herbicidal effect on H: barnyard grass [17]: 0 (Herbicidal rate of 5% or less (almost no effect)) | M: velvetleaf, herbicidal effect (criteria 0-5) [18, 29]: 5 (Herbicidal rate of 90% or more (almost completely withered)) | herbicidal effect on O: lambsquarters [19]: 0 (Herbicidal rate of 5% or less (almost no effect)) | herbicidal effect on R: persian speedwell [20]: 4 (Herbicidal rate of 70% or more and less than 90%) | herbicidal effect on I: wild oat [21]: 0 (Herbicidal rate of 5% or less (almost no effect)) | herbicidal effect on M: velvetleaf [22]: 0 (Herbicidal rate of 5% or less (almost no effect)) | herbicidal effect on L: windgrass [23]: 0 (Herbicidal rate of 5% or less (almost no effect)) | herbicidal effect on F: southern crabgrass [24]: 0 (Herbicidal rate of 5% or less (almost no effect)) | herbicidal effect on H: barnyard grass [25]: 5 (Herbicidal rate of 90% or more (almost completely withered)) | O: lambsquarters, herbicidal effect (criteria 0-5) [26, 29]: 5 (Herbicidal rate of 90% or more (almost completely withered)) | herbicidal effect on J: blackgrass [27]: 0 (Herbicidal rate of 5% or less (almost no effect))
